{"source": "ChEMBL document CHEMBL4804286", "about": "“3-amino-4-(4-(4 (dimethylcarbamoyl) phenyl)-1,4-diazepan-1-yl) thieno [2,3-b] pyridine-2-carboxamide for use in cancer therapy and formulations comprising the same” (2020)", "key": {"[1]": {"molecular_target": "Mitotic checkpoint serine/threonine-protein kinase BUB1 (Homo sapiens) (UniProt O43683)", "experiment": "Inhibition of human BUB1 assessed as percent of control at 2000 nM by KINOMEscan assay relative to control", "design": "scale not given: the % may be the effect or the level left"}, "[2]": {"molecular_target": "Serine/threonine-protein kinase ICK (Homo sapiens) (UniProt Q9UPZ9)", "experiment": "Inhibition of human ICK assessed as percent of control at 2000 nM by KINOMEscan assay relative to control", "design": "scale not given: the % may be the effect or the level left"}, "[3]": {"molecular_target": "1-phosphatidylinositol 3-phosphate 5-kinase (Homo sapiens) (UniProt Q9Y2I7)", "experiment": "Inhibition of human PIKFYVE assessed as percent of control at 2000 nM by KINOMEscan assay relative to control", "design": "scale not given: the % may be the effect or the level left"}, "[4]": {"molecular_target": "Serine/threonine-protein kinase 38-like (Homo sapiens) (UniProt Q9Y2H1)", "experiment": "Inhibition of human NDR2 assessed as percent of control at 2000 nM by KINOMEscan assay relative to control", "design": "scale not given: the % may be the effect or the level left"}, "[5]": {"molecular_target": "Serine/threonine-protein kinase BRSK1 (Homo sapiens) (UniProt Q8TDC3)", "experiment": "Inhibition of human BRSK1 assessed as percent of control at 2000 nM by KINOMEscan assay relative to control", "design": "scale not given: the % may be the effect or the level left"}, "[6]": {"molecular_target": "Activated CDC42 kinase 1 (Homo sapiens) (UniProt Q07912)", "experiment": "Inhibition of human TNK2 assessed as percent of control at 2000 nM by KINOMEscan assay relative to control", "design": "scale not given: the % may be the effect or the level left"}, "[7]": {"molecular_target": "Serine/threonine-protein kinase 32A (Homo sapiens) (UniProt Q8WU08)", "experiment": "Inhibition of human YANK1 assessed as percent of control at 2000 nM by KINOMEscan assay relative to control", "design": "scale not given: the % may be the effect or the level left"}, "[8]": {"molecular_target": "Ribosomal protein S6 kinase alpha-3 (Homo sapiens) (UniProt P51812)", "experiment": "Inhibition of human C-terminal RSK2 kinase domain 2 assessed as percent of control at 2000 nM by KINOMEscan assay relative to control", "design": "scale not given: the % may be the effect or the level left"}, "[9]": {"molecular_target": "Serine/threonine-protein kinase PAK 4 (Homo sapiens) (UniProt O96013)", "experiment": "Inhibition of human PAK4 assessed as percent of control at 2000 nM by KINOMEscan assay relative to control", "design": "scale not given: the % may be the effect or the level left"}, "[10]": {"molecular_target": "Mitogen-activated protein kinase 1 (Homo sapiens) (UniProt P28482)", "sequence (P28482 whole entry)": "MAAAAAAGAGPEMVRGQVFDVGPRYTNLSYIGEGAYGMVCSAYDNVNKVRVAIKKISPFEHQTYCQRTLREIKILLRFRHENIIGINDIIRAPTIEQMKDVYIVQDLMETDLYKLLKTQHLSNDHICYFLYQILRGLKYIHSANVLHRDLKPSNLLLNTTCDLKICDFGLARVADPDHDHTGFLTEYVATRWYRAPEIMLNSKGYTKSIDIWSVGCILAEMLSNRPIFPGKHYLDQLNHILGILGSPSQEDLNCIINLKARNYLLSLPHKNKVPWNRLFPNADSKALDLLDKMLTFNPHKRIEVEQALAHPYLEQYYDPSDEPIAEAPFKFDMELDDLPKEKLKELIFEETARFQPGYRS", "experiment": "Inhibition of human ERK2 assessed as percent of control at 2000 nM by KINOMEscan assay relative to control", "design": "scale not given: the % may be the effect or the level left"}, "[11]": {"tested_on": "Phosphatidylinositol 4,5-bisphosphate 3-kinase catalytic subunit alpha isoform (Homo sapiens), P42336 [E545K]", "experiment": "Inhibition of human PIK3CA E545K mutant assessed as percent of control at 2000 nM by KINOMEscan assay relative to control", "design": "scale not given: the % may be the effect or the level left"}, "[12]": {"tested_on": "Epidermal growth factor receptor (Homo sapiens), P00533 [UNDEFINED MUTATION]", "sequence (P00533 whole entry, looked up, stated change not applied)": "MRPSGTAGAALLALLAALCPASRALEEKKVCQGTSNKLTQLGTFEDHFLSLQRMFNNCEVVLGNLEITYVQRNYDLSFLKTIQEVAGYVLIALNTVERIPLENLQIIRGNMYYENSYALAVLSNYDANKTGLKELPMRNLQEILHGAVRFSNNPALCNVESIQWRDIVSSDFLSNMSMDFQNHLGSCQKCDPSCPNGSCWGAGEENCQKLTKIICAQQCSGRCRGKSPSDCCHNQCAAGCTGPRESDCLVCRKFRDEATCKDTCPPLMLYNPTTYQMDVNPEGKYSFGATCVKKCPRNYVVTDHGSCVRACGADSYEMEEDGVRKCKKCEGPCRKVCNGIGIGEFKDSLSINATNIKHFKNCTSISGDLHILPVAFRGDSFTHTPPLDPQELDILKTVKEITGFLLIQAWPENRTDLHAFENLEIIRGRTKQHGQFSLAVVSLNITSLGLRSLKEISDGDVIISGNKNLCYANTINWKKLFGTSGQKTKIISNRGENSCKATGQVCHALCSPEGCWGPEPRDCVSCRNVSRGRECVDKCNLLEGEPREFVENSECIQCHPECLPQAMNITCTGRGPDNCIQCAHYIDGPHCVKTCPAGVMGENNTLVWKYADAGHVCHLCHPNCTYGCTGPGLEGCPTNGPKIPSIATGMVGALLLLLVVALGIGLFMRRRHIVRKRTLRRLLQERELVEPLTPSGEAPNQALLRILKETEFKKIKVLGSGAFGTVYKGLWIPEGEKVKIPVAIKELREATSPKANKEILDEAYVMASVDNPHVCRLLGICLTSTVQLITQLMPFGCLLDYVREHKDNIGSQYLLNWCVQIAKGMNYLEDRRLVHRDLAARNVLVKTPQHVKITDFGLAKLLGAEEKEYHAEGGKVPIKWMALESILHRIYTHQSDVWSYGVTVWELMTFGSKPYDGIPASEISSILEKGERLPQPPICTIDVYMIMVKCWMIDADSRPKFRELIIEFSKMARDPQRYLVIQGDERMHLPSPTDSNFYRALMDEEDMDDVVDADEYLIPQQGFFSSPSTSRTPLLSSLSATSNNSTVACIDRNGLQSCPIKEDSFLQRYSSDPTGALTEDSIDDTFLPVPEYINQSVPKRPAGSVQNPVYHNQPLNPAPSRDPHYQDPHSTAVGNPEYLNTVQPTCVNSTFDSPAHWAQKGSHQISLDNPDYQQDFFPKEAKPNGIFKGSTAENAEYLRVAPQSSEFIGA", "experiment": "Inhibition of human EGFR L747-T751del/Sins double mutant assessed as percent of control at 2000 nM by KINOMEscan assay relative to control", "design": "scale not given: the % may be the effect or the level left"}, "CWR22R": {"tested_on": "CWR22R", "experiment": "Antitumor activity against human 22Rv1 cells expressing AR-V7 xenografted in male nude mouse assessed as suppression of tumor growth at 50 mg/kg, administered once a day for 40 days", "assay_type": "functional, organism-based"}, "[13]": {"tested_on": "Receptor-type tyrosine-protein kinase FLT3 (Homo sapiens), P36888 [D835H]", "experiment": "Inhibition of human FLT3 D835H mutant assessed as percent of control at 2000 nM by KINOMEscan assay relative to control", "design": "scale not given: the % may be the effect or the level left"}, "[14]": {"molecular_target": "cAMP-dependent protein kinase catalytic subunit beta (Homo sapiens) (UniProt P22694)", "experiment": "Inhibition of human PKAC-beta assessed as percent of control at 2000 nM by KINOMEscan assay relative to control", "design": "scale not given: the % may be the effect or the level left"}, "[15]": {"molecular_target": "Serine/threonine-protein kinase SIK1 (Homo sapiens) (UniProt P57059)", "experiment": "Inhibition of human SIK assessed as percent of control at 2000 nM by KINOMEscan assay relative to control", "design": "scale not given: the % may be the effect or the level left"}, "[16]": {"tested_on": "Epidermal growth factor receptor (Homo sapiens), P00533 [UNDEFINED MUTATION]", "experiment": "Inhibition of human EGFR […] mutant assessed as percent of control at 2000 nM by KINOMEscan assay relative to control", "design": "scale not given: the % may be the effect or the level left"}, "[17]": {"molecular_target": "Serine/threonine-protein kinase TAO2 (Homo sapiens) (UniProt Q9UL54)", "sequence (Q9UL54 whole entry)": "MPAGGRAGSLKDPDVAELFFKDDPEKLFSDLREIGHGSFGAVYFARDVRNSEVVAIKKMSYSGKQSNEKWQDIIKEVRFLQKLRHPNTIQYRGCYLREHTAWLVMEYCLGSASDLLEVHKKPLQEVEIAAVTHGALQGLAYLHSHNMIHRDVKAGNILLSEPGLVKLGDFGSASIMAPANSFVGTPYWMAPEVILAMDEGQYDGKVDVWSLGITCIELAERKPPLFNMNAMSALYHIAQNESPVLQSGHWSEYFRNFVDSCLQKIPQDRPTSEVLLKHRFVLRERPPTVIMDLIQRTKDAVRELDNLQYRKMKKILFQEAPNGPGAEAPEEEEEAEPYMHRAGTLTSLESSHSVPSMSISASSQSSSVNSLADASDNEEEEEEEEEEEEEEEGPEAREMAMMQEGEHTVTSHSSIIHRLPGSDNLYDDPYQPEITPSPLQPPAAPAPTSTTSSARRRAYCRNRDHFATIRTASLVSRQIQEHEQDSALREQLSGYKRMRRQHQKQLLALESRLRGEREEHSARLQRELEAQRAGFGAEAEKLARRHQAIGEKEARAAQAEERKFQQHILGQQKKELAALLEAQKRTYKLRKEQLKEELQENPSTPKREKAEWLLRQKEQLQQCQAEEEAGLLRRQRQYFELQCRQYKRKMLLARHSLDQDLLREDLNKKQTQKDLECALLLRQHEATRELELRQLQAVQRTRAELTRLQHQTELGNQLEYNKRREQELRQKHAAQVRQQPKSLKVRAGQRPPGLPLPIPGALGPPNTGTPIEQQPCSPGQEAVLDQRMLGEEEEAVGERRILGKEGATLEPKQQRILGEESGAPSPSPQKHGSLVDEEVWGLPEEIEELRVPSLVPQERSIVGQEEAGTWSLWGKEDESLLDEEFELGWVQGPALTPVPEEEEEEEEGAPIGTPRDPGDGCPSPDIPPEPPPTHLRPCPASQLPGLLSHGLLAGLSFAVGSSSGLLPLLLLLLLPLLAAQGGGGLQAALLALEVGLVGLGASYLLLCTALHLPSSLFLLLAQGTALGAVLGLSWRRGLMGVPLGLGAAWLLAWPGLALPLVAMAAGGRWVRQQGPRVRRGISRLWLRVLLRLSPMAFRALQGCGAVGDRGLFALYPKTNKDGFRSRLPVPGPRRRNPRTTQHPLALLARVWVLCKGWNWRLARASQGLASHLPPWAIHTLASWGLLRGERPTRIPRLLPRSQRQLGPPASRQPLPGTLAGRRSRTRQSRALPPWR", "experiment": "Inhibition of human TAOK2 assessed as percent of control at 2000 nM by KINOMEscan assay relative to control", "design": "scale not given: the % may be the effect or the level left"}, "[18]": {"tested_on": "Proto-oncogene tyrosine-protein kinase receptor Ret (Homo sapiens), P07949 [V804L]", "experiment": "Inhibition of human RET V804L mutant assessed as percent of control at 2000 nM by KINOMEscan assay relative to control", "design": "scale not given: the % may be the effect or the level left"}, "[19]": {"molecular_target": "Tyrosine-protein kinase Lyn (Homo sapiens) (UniProt P07948)", "experiment": "Inhibition of human LYN assessed as percent of control at 2000 nM by KINOMEscan assay relative to control", "design": "scale not given: the % may be the effect or the level left"}, "[20]": {"molecular_target": "Epidermal growth factor receptor (Homo sapiens) (UniProt P00533)", "sequence (P00533 whole entry)": "as the sequence (P00533 whole entry, looked up, stated change not applied) above", "experiment": "Inhibition of human EGFR assessed as percent of control at 2000 nM by KINOMEscan assay relative to control", "design": "scale not given: the % may be the effect or the level left"}, "[21]": {"molecular_target": "Cyclin-dependent kinase 5 (Homo sapiens) (UniProt Q00535)", "experiment": "Inhibition of human CDK5 assessed as percent of control at 2000 nM by KINOMEscan assay relative to control", "design": "scale not given: the % may be the effect or the level left"}, "[22]": {"molecular_target": "STE20-like serine/threonine-protein kinase (Homo sapiens) (UniProt Q9H2G2)", "experiment": "Inhibition of human SLK assessed as percent of control at 2000 nM by KINOMEscan assay relative to control", "design": "scale not given: the % may be the effect or the level left"}, "[23]": {"molecular_target": "Casein kinase I isoform gamma-1 (Homo sapiens) (UniProt Q9HCP0)", "sequence (Q9HCP0 whole entry, looked up, canonical isoform)": "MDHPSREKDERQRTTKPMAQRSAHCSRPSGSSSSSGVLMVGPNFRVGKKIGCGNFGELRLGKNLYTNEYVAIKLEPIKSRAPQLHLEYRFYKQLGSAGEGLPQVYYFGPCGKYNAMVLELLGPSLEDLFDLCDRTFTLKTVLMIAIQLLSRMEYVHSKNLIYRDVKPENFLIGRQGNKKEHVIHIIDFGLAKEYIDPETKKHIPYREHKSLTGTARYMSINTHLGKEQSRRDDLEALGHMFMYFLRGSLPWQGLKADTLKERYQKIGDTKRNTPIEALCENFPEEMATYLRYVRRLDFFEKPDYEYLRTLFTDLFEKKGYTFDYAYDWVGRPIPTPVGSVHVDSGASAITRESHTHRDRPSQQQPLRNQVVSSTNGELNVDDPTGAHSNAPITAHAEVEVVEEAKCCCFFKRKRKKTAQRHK", "experiment": "Inhibition of human CSNK1G1 assessed as percent of control at 2000 nM by KINOMEscan assay relative to control", "design": "scale not given: the % may be the effect or the level left"}, "[24]": {"molecular_target": "Phosphatidylinositol 4-kinase beta (Homo sapiens) (UniProt Q9UBF8)", "experiment": "Inhibition of human PIK4CB assessed as percent of control at 2000 nM by KINOMEscan assay relative to control", "design": "scale not given: the % may be the effect or the level left"}, "[25]": {"tested_on": "Mast/stem cell growth factor receptor Kit (Homo sapiens), P10721 [L576P]", "experiment": "Inhibition of human KIT L576P mutant assessed as percent of control at 2000 nM by KINOMEscan assay relative to control", "design": "scale not given: the % may be the effect or the level left"}, "[26]": {"molecular_target": "Interleukin-1 receptor-associated kinase 1 (Homo sapiens) (UniProt P51617)", "experiment": "Inhibition of human IRAK1 assessed as percent of control at 2000 nM by KINOMEscan assay relative to control", "design": "scale not given: the % may be the effect or the level left"}, "[27]": {"molecular_target": "Glycogen synthase kinase-3 alpha (Homo sapiens) (UniProt P49840)", "sequence (P49840 2-483 limits assumed)": "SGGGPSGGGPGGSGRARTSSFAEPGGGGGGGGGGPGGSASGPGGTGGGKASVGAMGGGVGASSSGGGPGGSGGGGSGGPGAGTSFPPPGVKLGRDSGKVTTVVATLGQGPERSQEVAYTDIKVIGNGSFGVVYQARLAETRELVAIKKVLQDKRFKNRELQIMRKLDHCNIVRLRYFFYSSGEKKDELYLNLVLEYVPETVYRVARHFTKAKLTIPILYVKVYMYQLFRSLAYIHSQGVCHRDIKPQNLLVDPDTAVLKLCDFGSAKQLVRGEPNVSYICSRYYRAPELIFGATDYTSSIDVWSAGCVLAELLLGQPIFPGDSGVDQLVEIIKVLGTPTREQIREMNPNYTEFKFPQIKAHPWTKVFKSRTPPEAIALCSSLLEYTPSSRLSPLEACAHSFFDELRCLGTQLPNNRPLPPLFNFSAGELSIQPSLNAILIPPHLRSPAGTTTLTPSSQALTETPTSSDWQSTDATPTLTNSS", "experiment": "Inhibition of human GSK3A assessed as percent of control at 2000 nM by KINOMEscan assay relative to control", "design": "scale not given: the % may be the effect or the level left", "conditions": "INHIBITOR"}, "[28]": {"molecular_target": "Mitogen-activated protein kinase 8 (Homo sapiens) (UniProt P45983)", "experiment": "Inhibition of human JNK1 assessed as percent of control at 2000 nM by KINOMEscan assay relative to control", "design": "scale not given: the % may be the effect or the level left"}, "[29]": {"molecular_target": "Cyclin-dependent kinase 4/cyclin D1 (Homo sapiens) (UniProt P11802+P24385)", "experiment": "Inhibition of human CDK4/cyclin D1 assessed as percent of control at 2000 nM by KINOMEscan assay relative to control", "assay_type": "protein-complex assay", "design": "scale not given: the % may be the effect or the level left"}}, "note": "Where “and” joins values, the source holds several entries; their conditions need not be identical. Equal entries are not always repeated. Calls of active or inactive are those of the source. The rule behind the calls is not given here."}
{"smiles": "CN(C)C(=O)c1ccc(N2CCCN(c3ccnc4sc(C(N)=O)c(N)c34)CC2)cc1", "values": [{"measurement": "Activity", "setting": "[1]", "value": "88% and 80%"}, {"measurement": "Activity", "setting": "[2]", "value": "84% and 66%"}, {"measurement": "Activity", "setting": "[3]", "value": "91% and 98%"}, {"measurement": "Activity", "setting": "[4]", "value": 99, "unit": "%"}, {"measurement": "Activity", "setting": "[4]; INHIBITOR", "value": 36, "unit": "%"}, {"measurement": "Activity", "setting": "[5]", "value": "86% and 97%"}, {"measurement": "Activity", "setting": "[6]", "value": 100, "unit": "%"}, {"measurement": "Activity", "setting": "[7]", "value": "89% and 97%"}, {"measurement": "Activity", "setting": "[8]", "value": "94% and 92%"}, {"measurement": "Activity", "setting": "[9]", "value": "87% and 100%"}, {"measurement": "Activity", "setting": "[10]", "value": "78% and 92%"}, {"measurement": "Activity", "setting": "[11]", "value": "96% and 91%"}, {"measurement": "Activity", "setting": "[12]", "value": "87% and 100%"}, {"measurement": "Activity", "setting": "CWR22R", "value": "Active"}, {"measurement": "Activity", "setting": "[13]", "value": "63% and 76%"}, {"measurement": "Activity", "setting": "[14]", "value": "83% and 100%"}, {"measurement": "Activity", "setting": "[15]", "value": "84% and 79%"}, {"measurement": "Activity", "setting": "[16]", "value": "86% and 100%"}, {"measurement": "Activity", "setting": "[17]", "value": "92% and 93%"}, {"measurement": "Activity", "setting": "[18]", "value": 100, "unit": "%"}, {"measurement": "Activity", "setting": "[19]", "value": "100% and 98%"}, {"measurement": "Activity", "setting": "[20]", "value": "100% and 87%"}, {"measurement": "Activity", "setting": "[21]", "value": "84% and 94%"}, {"measurement": "Activity", "setting": "[22]", "value": "56% and 54%"}, {"measurement": "Activity", "setting": "[23]", "value": "90% and 80%"}, {"measurement": "Activity", "setting": "[24]", "value": 65, "unit": "%"}, {"measurement": "Activity", "setting": "[24]; INHIBITOR", "value": 33, "unit": "%"}, {"measurement": "Activity", "setting": "[25]", "value": "96% and 75%"}, {"measurement": "Activity", "setting": "[26]", "value": "94% and 84%"}, {"measurement": "Activity", "setting": "[27]", "value": "31% and 34%"}, {"measurement": "Activity", "setting": "[28]", "value": 68, "unit": "%"}, {"measurement": "Activity", "setting": "[28]; INHIBITOR", "value": 30, "unit": "%"}, {"measurement": "Activity", "setting": "[29]", "value": "94% and 96%"}]}
